These are literature values, as cited in US8445706B2, “Unnatural amino acids capable of covalently modifying protein phosphatases and their use as general and specific inhibitors and probes” (Board of Trustees of Northern Illinois University, priority 2008, dated 2013).

The conditions of the series: neutral or basic aqueous solutions; cited from earlier work.

For `O=P(O)(O)C(Br)c1ccccc1` (stereo not drawn) [α-bromobenzylphosphonate], the solvolysis result was “undergoes solvolysis”.
